Four compounds from patent US5393779A, “Chemical compounds” (Zeneca Limited, priority 1991, dated 1995) can be followed below.

Each structure is given as a SMILES string. A value given as a limit tells only on which side of the number the result lay.

One experiment has as its system rat adipocytes. The experiment can be described thus: Rat adipocyte lipolysis test. As to conditions: 1.5 h, rat epididymal adipocytes, 90 minutes, free fatty acids, isoprenaline 3×10^-6 M, read-out: Efficacy (maximal effect on lipolysis as a percentage of the maximal effect of isoprenaline). The class given is cell-based, rats. As for the experimental part: Epididymal adipose tissue was excised from male rats and adipocytes prepared by digestion with collagenase. Cells were isolated by flotation and washed four times with Krebs Ringer Bicarbonate buffer (KRB), finally washing in KRB containing 2% bovine serum albumin (KRB/BSA). Aliquots of the cell suspension were incubated in the presence of a range of concentrations of the test compound in a total volume of 1 ml KRB/2% BSA containing 0.1 mg/ml ascorbate in an atmosphere of 95%O2,5%CO2. Incubations were also carried out in the presence of a concentration of isoprenaline (3×10^-6 M) known to have a maximal effect on lipolysis. Control incubations were carried out in KRB/2% BSA containing ascorbate. The incubations were terminated after 90 minutes by placing the tubes on ice, and aliquots of infranatant removed for assay of free fatty acids which were measured using a WAKO NEFA-C assay kit (Alpha Laboratories). Lipolytic activity of the compounds was assessed by determining the increase in free fatty acid concentrations caused by the compounds compared to controls. The maximal effects (efficacy) of the compounds were determined and expressed as percentage of the maximal effect of isoprenaline.
Efficacy is the maximal effect of the test compound on lipolysis expressed as a percentage of the maximal effect of isoprenaline.

The subject of experiment [1] is Rats. The experiment can be described thus: Test (c): metabolic rate by closed-circuit oxygen consumption in rats. The class given is in vivo. As to conditions: 1mgkg^-1 p.o. The method, then:
(c) Rats are kept at 23° C. for at least two days, then fasted overnight. On the following day, the basal metabolic rate of the animals is determined using a close-circuit oxygen consumption apparatus of the type described by Arundel et al., 1984, J. Appl. Physiol. Respirat. Environ. Exercise Physiol., 1984, 57 (5) 1591-1593. The rats are then dosed (orally) with test compound at about 1 mgkg^-1 as a solution or suspension in 0,025% w/v Polysorbate 80 (0.5 ml/100 g). Metabolic rate is then determined for at least one hour after dosing. Compounds are considered active in this test if they cause a significant increase in metabolic rate as compared to control animals (Student's t test: p <0.05) dosed only the solution or suspension vehicle.

In another experiment the test system is C57BL/KsJ (db/db) mice. The experiment can be described thus: Effects on blood glucose levels in insulin resistant db/db mice. The settings on record: 50 mg/kg diet. It is filed as in vivo. As for the experimental part:
Effects on blood glucose levels in insulin resistant db/db mice C57BL/KsJ (db/db) mice were divided into two groups and allowed free access to control diet or diet containing the compound of Example 1 at a concentration of 50 mg/kg diet. A group of control (+/+) mice was also included in the experiment. After 16 days treatment, blood samples were taken from the mice for determination of blood glucose levels.
Results are mean±S.E.M. of observations in groups of 15 mice. Student's t test was used to test the significance of the difference between control (+/+) and treated (db/db) groups.

For experiment [2], the system named is brown adipose tissue (BAT) mitochondria. The experiment can be described thus: Test (a): GDP binding in BAT mitochondria of cold-adapted rats as a measure of thermogenic activation. It is filed as in vivo. As to conditions: BAT removed one hour after dosing; for ED50: Rattus norvegicus, 1 h, oral, relative to isoprenaline 1 mgkg^-1, read-out: oral ED50 (dose producing 50% of the isoprenaline effect on GDP binding). The method, then:
(a) Rats are cold adapted at 4° C. for 5 days to increase their capacity for thermogenesis. They are then transferred to a warm environment of 25° C. for 2 days. On the following day, a test compound is administered sub-cutaneously or orally. Animals are sacrificed one hour later and the interscapular, brown adipose tissue (BAT) pad is removed. BAT mitochondria are prepared by differential centrifugation and GDP binding is determined (Holloway et al., International Journal of Obesity, 1984, 8, 295) as a measure of thermogenic activation. Each test includes a control which is dosed with the solution/suspension vehicle only and a positive control which is dosed with isoprenaline (as its sulphate) at 1 mgkg^-1. Test compounds are routinely dosed at 0.1, 0.3, 1.0, 3.0, and 10 […] and results expressed in terms of the effect on GDP binding produced by the positive control. […] Compounds are considered active in this test if they cause a significant elevation in GDP binding as compared to controls.

Experiment [3] has as its system Rats. The experiment can be described thus: Test (b): heart rate in rats, D500 dose and selectivity index (SI). It is filed as in vivo. As for the experimental part:
(b) Rats are adapted to a thermoneutral environment (29° C.) for 2 weeks in order to decrease their capacity for BAT mediated non-shivering thermogenesis. During the final 5 days the animals are trained to use an apparatus for measuring heart rate non-invasively via foot-pad electrodes connected to an ECG integrator giving a continuous read-out of heart rate. A test compound is administered sub-cutaneously or orally at the ED50 determined in test (a), and heart rate is determined 15-30 minutes after dosing. The procedure is then repeated in subsequent tests using increasing multiples of the ED50 determined in test (a) until the heart rate (HR) reaches or exceeds 500 beats per minute, or until the dose reaches 100 times the ED50 determined in test (a). The dose necessary to produce a heart rate of 500 beats per minute (D500 dose) is estimated.
The ratio of D500 to ED50 in test (a) can be defined as the selectivity index (SI) and provides a measure of the selectivity of the compound for BAT as opposed to the cardiovascular system.

The test system of a further experiment is Male rats. The experiment can be described thus: Oral glucose tolerance test. The class given is in vivo. The settings on record: for Plasma glucose: 5 mg/Kg p.o., mean±S.E.M., six rats. As for the experimental part:
Male rats (125-150 g) were fasted for 24 hours. After fasting, a group of six rats was anaesthetised and a cardiac blood sample taken. Other groups of rats were then dosed with the compound of Example 1 (5.0 mg/Kg p.o.) dissolved in an aqueous solution of 0.025% polysorbate. Control rats were dosed with polysorbate solution alone. The volume of solution dosed was 0.5 ml/100 g body weight. 60 minutes subsequent to dosing six control and six treated rats were anaesthetised and cardiac samples taken. The remaining rats were given an oral glucose load (1 g/Kg) dosed as a 20% solution of D-glucose (0.5 ml/100 g). Groups of six rats for each control and treatment were then anaesthetised and bled at 20, 60 and 120 minutes after the glucose load. Plasma glucose and insulin were determined using standard methods.
The results are mean±S.E.M. of observations in six rats in each group. Student's t test was used to test the significance of the difference between control and treated groups.

Regarding `O=C(O)COc1ccc(OCCNCC(O)COc2ccccc2)cc1` (stereo not drawn) [4-[2-(2-Hydroxy-3-phenoxypropylamino)-ethoxy]phenoxyacetic acid, reference compound], the Emax with rat adipocytes is 26%.
Regarding `O=C(O)Cc1ccc(OCCNC[C@H](O)c2ccccc2)cc1` [Example 1, (R)-4-[2-(2-Hydroxy-2-phenylethylamino)ethoxy]phenylacetic acid], the “metabolic rate (oxygen consumption)” value in the experiment with Rats [1] is listed as 6.53 ml O2 min^-l (Kg^O.75). Moreover, the Emax with rat adipocytes amounted to 100%. Also, the “effect on blood glucose levels (in words)” value in the experiment with C57BL/KsJ (db/db) mice (16 days) was “normalises blood glucose levels”. This compound also displayed a Blood glucose in the experiment on C57BL/KsJ (db/db) mice (after 16 days treatment, mean±S.E.M., 15 mice) of 5.3 ± 0.46 mM. The “oral ED50 (dose producing 50% of the isoprenaline effect on GDP binding)” value in experiment [2] (relative to isoprenaline 1 mgkg^-1) amounted to 0.55 mgkg^-1. Moreover, the ED50 in experiment [2] worked out at 0.55 mg/kg. Besides, the “SI (selectivity index, ratio of D500 to ED50 in test (a))” value with Rats [3] (oral) is more than 50. Also, the Plasma glucose in the experiment with Male rats (0 mins relative to oral glucose load) came to 3.52 ± 0.07 mM; in the experiment with Male rats (20 mins after oral glucose load (1 g/Kg)), 5.72 ± 0.24 mM; with Male rats (60 mins after oral glucose load (1 g/Kg)) it was 5.32 ± 0.24 mM; with Male rats (120 mins after oral glucose load (1 g/Kg)), 5.43 ± 0.31 mM. Moreover, in the experiment with Male rats (5.0 mg/Kg p.o., rats), the “antihyperglycaemic activity (in words)” value was “marked antihyperglycaemic activity”.
With `CC(C)NCC(O)c1ccc(O)c(O)c1` (stereo not drawn) [isoprenaline, reference compound], in the experiment on Rats [3] (route not stated), the “SI (selectivity index, ratio of D500 to ED50 in test (a))” value is 0.06.
With `O=C(O)COc1ccc(OCCNCC(O)c2ccccc2)cc1` (stereo not drawn) [4-[2-(2-Hydroxy-2-phenylethylamino)-ethoxy]phenyloxyacetic acid, reference compound], the ED50 in experiment [2] is more than 3 mg/kg.
